{"source": "patent US4898870A", "about": "“Pyrroloquinoline quinone compounds useful as an enzyme inhibitor” (Sogo Pharmaceutical Company Limited, priority 1986, dated 1990)", "key": {"[1]": {"target": "T1, human placental aldose reductase (Homo sapiens, UniProt P15121)", "T1 construct": "An enzyme solution was prepared from human placenta; from tissue; host or cells: human placenta", "test": "Inhibition of human placental aldose reductase", "type": "biochemical", "conditions": "human placenta enzyme", "experimental": "Specifically reaction was started by adding dl-glyceraldehyde as a substrate to a reaction solution containing rat lens homogenate, Li2 SO4, NADPH2 and inhibitor, and the enzyme activity was measured by the decrease of the optical absorption of NADPH2 (optical density: OD) at 340 nm for 5 min. The solution with no addition of the substrate was used for the blank OD. The inhibiting ratio for the aldose reductase reaction by the inhibitor was determined by the following equation: [formula]\nThe determination of enzyme activity was same as in Test Example 1 except enzyme source was human placenta.\nTo a reaction solution containing the chick lens homogenate, Li2 SO4, NADPH2 and an inhibitor, was added dlglyceraldehyde as substrate to start the reaction, and the enzymatic activity was determined by measuring the decrease in optical density (OD) of NADPH2 at 340 nm after five minutes. A solution with no substrate added was used for the blank test. The inhibition rate against the aldose reductase reaction was calculated from the following equation: [formula]\nAn enzyme solution was prepared from human placenta, and the inhibitory action of PQQ·2K against human placental aldose reductase was measured in the same way as in Test Example 4.\nAn enzyme solution was prepared from human placenta, and the inhibitory action of PQQ·3Me against human placental aldose reductase was measured in the same way as in Test Example 4.\nAn enzyme solution was prepared from human placenta, and the inhibitory action of PQQ·2Me.Et against human placental aldose reductase was measured in the same way as in Test Example 4."}, "Acute toxicity test, rat": {"test": "Acute toxicity test, rat", "conditions": "in vivo", "description": "(§1) Generally, pyrroloquinoline quinone (hereinafter referred to as PQQ) is a novel coenzyme different from conventional coenzyme NAD(P) or flavins for oxydation-reduction and it was initially found as a coenzyme for glucose dehydrogenase of Acinetobactor group. PQQ has a concern with the oxidizing reaction of alcohols, aldehydes, glucose and amines in an organism. Further, its growth promoting effect to a certain kind of micro-organisms,animal cells, plant cells has also been reported. Further, PQQ is also presented in the blood of mammal and, while its vitamin-like physiological activity is guessed, its biological roles has not yet been known at present. However, PQQ and its derivatives constitute the ingredients of an organism and considered to be a stable and non-toxic substance. This is apparent from the result of the acute toxicity test to mouse and rat described later.\n(§2) Acute toxicity test of PQQ tri(dimethylamide)"}, "[2]": {"test": "Acute toxicity test, mouse", "conditions": "in vivo", "description": "as §1, §2"}}}
{"smiles": "CN(C)C(=O)c1cc(C(=O)N(C)C)c2c(n1)C(=O)C(=O)c1cc(C(=O)N(C)C)[nH]c1-2", "note": "[PQQ tri(dimethylamide)]", "values": [{"measurement": "IC50", "setting": "[1]", "result": 830, "unit": "nM"}, {"measurement": "LD50", "setting": "Acute toxicity test, rat; oral", "result": "> 5000", "unit": "mg/kg"}, {"measurement": "LD50", "setting": "Acute toxicity test, rat; sc, subcutaneous", "result": "> 1500", "unit": "mg/kg"}, {"measurement": "LD50", "setting": "[2]; oral", "result": "> 5000", "unit": "mg/kg"}, {"measurement": "LD50", "setting": "[2]; sc, subcutaneous", "result": "> 1500", "unit": "mg/kg"}]}
